{"source": "patent US20230158047A1", "about": "“METHODS AND COMPOSITIONS FOR TREATING PROSTATE CANCER” (Tavanta Therapeutics Hungary Incorporated, priority 2020, published 2023)", "origin": "cited, not measured here", "test_system": "PSA levels", "settings": "phase 3, patients who failed prior chemotherapy with taxanes"}
{"smiles": "CC(=O)O[C@H]1CC[C@@]2(C)C(=CC[C@@H]3[C@@H]2CC[C@]2(C)C(c4cccnc4)=CC[C@@H]32)C1", "note": "[abiraterone acetate, 3β-acetoxy-17-(3-pyridyl)-androsta-5,16-diene]", "values": [{"measurement": "patients with at least a 50% decline from baseline in PSA levels", "result": 38, "unit": "%"}]}
